Source: PubChem BioAssay (NCI)
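Test compounds were applied to cells in 96-well plates for 48 hours at 5 doses. GI50 is the concentration that inhibits growth by half. TGI denotes the concentration required for complete inhibition of growth.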

Legend:
Test in all cases: growth of human tumour cells (NCI), 48 h
[1] = system: 786-0 renal
[2] = system: A498 renal
[3] = system: A549 NSCLC
[4] = system: ACHN renal
[5] = system: BT-549 breast
[6] = system: CAKI-1 renal
[7] = system: CCRF-CEM leukemia
[8] = system: COLO 205 colon
[9] = system: DU-145 prostate
[10] = system: HCC-2998 colon
[11] = system: HCT-116 colon
[12] = system: HCT-15 colon
[13] = system: HL-60(TB) leukemia
[14] = system: HOP-62 NSCLC
[15] = system: HOP-92 NSCLC
[16] = system: HS 578T breast
[17] = system: HT29 colon
[18] = system: IGROV1 ovarian
[19] = system: K-562 leukemia
[20] = system: KM12 colon
[21] = system: LOX IMVI melanoma
[22] = system: M14 melanoma
[23] = system: MALME-3M melanoma
[24] = system: MCF7 breast
[25] = system: MDA-MB-231 breast
[26] = system: MDA-MB-435
[27] = system: MOLT-4 leukemia
[28] = system: NCI-H226 lung
[29] = system: NCI-H23 lung
[30] = system: NCI-H460 lung
[31] = system: NCI-H522 lung
[32] = system: NCI/ADR-RES ovarian
[33] = system: OVCAR-3 ovarian
[34] = system: OVCAR-4 ovarian
[35] = system: OVCAR-5 ovarian
[36] = system: OVCAR-8 ovarian
[37] = system: PC-3 prostate
[38] = system: RPMI-8226 leukemia
[39] = system: RXF 393 renal
[40] = system: SF-268 CNS
[41] = system: SF-295 CNS
[42] = system: SF-539 CNS
[43] = system: SK-MEL-2 melanoma
[44] = system: SK-MEL-28 melanoma
[45] = system: SK-MEL-5 melanoma
[46] = system: SK-OV-3 ovarian
[47] = system: SN12C renal
[48] = system: SNB-19 CNS
[49] = system: SNB-75 CNS
[50] = system: SR leukemia
[51] = system: SW-620 colon
[52] = system: T-47D breast
[53] = system: TK-10 renal
[54] = system: U251 CNS
[55] = system: UACC-257 melanoma
[56] = system: UACC-62 melanoma
[57] = system: UO-31 renal

Cn1cc(C2=C(c3cn(CCSC(=N)N)c4ccccc34)C(=O)NC2=O)c2ccccc21
GI50 [1]: 4.29 µM | TGI [1]: 10.7 µM | GI50 [2]: 4.22 µM | TGI [2]: 8.95 µM | GI50 [3]: 3.94 µM | TGI [3]: 8.18 µM | GI50 [4]: 3.81 µM | TGI [4]: 7.74 µM | GI50 [5]: 4.11 µM | TGI [5]: 8.31 µM | GI50 [6]: 4.47 µM | TGI [6]: 9.25 µM | GI50 [7]: 1.38 µM | TGI [7]: 12.7 µM | GI50 [8]: 1.13 µM | TGI [8]: 4.52 µM | GI50 [9]: 3.94 µM | TGI [9]: 7.81 µM | GI50 [10]: 4.13 µM | TGI [10]: 8.07 µM | GI50 [11]: 1.45 µM | TGI [11]: 5.77 µM | GI50 [12]: 5.21 µM | TGI [12]: 11.9 µM | GI50 [13]: 4.65 µM | TGI [13]: 10 µM | GI50 [14]: 3.81 µM | TGI [14]: 7.98 µM | GI50 [15]: 2.38 µM | TGI [15]: 8.78 µM | GI50 [16]: 3.24 µM | TGI [16]: 10.4 µM | GI50 [17]: 1.31 µM | TGI [17]: 5.28 µM | GI50 [18]: 4.92 µM | TGI [18]: 9.46 µM | GI50 [19]: 1.87 µM | TGI [19]: 6.1 µM | GI50 [20]: 3.13 µM | TGI [20]: 6.57 µM | GI50 [21]: 3.02 µM | TGI [21]: 6.52 µM | GI50 [22]: 3.74 µM | TGI [22]: 8.01 µM | GI50 [23]: 4.08 µM | TGI [23]: 7.83 µM | GI50 [24]: 1.19 µM | TGI [24]: 4.55 µM | GI50 [25]: 4.12 µM | TGI [25]: 8.29 µM | GI50 [26]: 1.73 µM | TGI [26]: 5.25 µM | GI50 [27]: 1.98 µM | TGI [27]: 7.95 µM | GI50 [28]: 4.49 µM | TGI [28]: 12.2 µM | GI50 [29]: 3.53 µM | TGI [29]: 7.92 µM | GI50 [30]: 3.84 µM | TGI [30]: 7.69 µM | GI50 [31]: 1.88 µM | TGI [31]: 5.64 µM | GI50 [32]: 13.2 µM | TGI [32]: 25 µM | GI50 [33]: 3.37 µM | TGI [33]: 6.74 µM | GI50 [34]: 3.88 µM | TGI [34]: 8.96 µM | GI50 [35]: 6.25 µM | TGI [35]: 14.1 µM | GI50 [36]: 3.95 µM | TGI [36]: 8.91 µM | GI50 [37]: 3.51 µM | TGI [37]: 8.4 µM | GI50 [38]: 4.18 µM | TGI [38]: 10.1 µM | GI50 [39]: 3.56 µM | TGI [39]: 8.23 µM | GI50 [40]: 3.91 µM | TGI [40]: 8.18 µM | GI50 [41]: 3.47 µM | TGI [41]: 7.39 µM | GI50 [42]: 3.63 µM | TGI [42]: 7.62 µM | GI50 [43]: 2.79 µM | TGI [43]: 6.22 µM | GI50 [44]: 3.53 µM | TGI [44]: 7.06 µM | GI50 [45]: 3.83 µM | TGI [45]: 7.43 µM | GI50 [46]: 2.79 µM | TGI [46]: 6.56 µM | GI50 [47]: 2.8 µM | TGI [47]: 6.37 µM | GI50 [48]: 4.74 µM | TGI [48]: 10.3 µM | GI50 [49]: 1.49 µM | TGI [49]: 5.84 µM | GI50 [50]: 1.23 µM | TGI [50]: 6.87 µM | GI50 [51]: 3.25 µM | TGI [51]: 7.05 µM | GI50 [52]: 3.24 µM | TGI [52]: 8.25 µM | GI50 [53]: 3.15 µM | TGI [53]: 6.54 µM | GI50 [54]: 2.91 µM | TGI [54]: 6.32 µM | GI50 [55]: 3.85 µM | TGI [55]: 7.79 µM | GI50 [56]: 3.94 µM | TGI [56]: 7.43 µM | GI50 [57]: 3.63 µM | TGI [57]: 7.71 µM
